The source of these data is patent US8852876B2, “Label free biosensors and cells” (Corning Incorporated, priority 2008, dated 2014).

Test [1] deals with endogenous GPCRs in A431 cells. Nature of the test: DMR optical biosensor profiling of GPCR agonists. Format: cell-based, human. The following applies: quiescent A431; first class = Gq-type, second = Gs-type, third = Gi-type, fourth = no significant DMR.
For test [2], the target named is T1, protease activated receptors PAR1 and PAR2 (Homo sapiens, UniProt P25116).
T1 construct: A431 cells which endogenously express PAR1 and PAR2; endogenous in cells; host or cells: A431
T1 sequence (P25116 22-425): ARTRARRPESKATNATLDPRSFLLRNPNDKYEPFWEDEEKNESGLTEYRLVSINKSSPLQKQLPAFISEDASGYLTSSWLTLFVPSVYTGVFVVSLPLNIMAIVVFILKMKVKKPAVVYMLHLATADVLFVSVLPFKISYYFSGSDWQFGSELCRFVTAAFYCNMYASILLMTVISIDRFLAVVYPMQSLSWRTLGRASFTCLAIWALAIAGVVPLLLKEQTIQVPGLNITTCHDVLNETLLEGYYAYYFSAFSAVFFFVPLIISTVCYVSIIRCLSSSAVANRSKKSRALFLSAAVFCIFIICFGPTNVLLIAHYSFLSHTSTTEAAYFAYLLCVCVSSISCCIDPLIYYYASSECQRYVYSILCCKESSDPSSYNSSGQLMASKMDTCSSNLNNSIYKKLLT
It counts as cell-based. The following applies: quiescent A431; n=3. Put shortly:
(§1)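 A431 cells at passage 3-5 grown in DMEM/10% FBS at 37° C, 5% CO2 to ~95% confluency (~2-4 days). Compounds and PAR agonists prepared in 1×HBSS to match the refractive index of the cell medium for dynamic mass redistribution (DMR) read-out.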

In test [3] the test system is protease activated receptors PAR1 and PAR2. Format: cell-based, human. The following applies: interval about 1 hour. In short, it runs like this:
as §1

The test system is the same in test [4]. Nature of the test: Fluo-3 Ca2+ mobilization assay with PAR agonists. It counts as cell-based, human. Put shortly: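 A431 cells (passage 3–5), serum-starved overnight, loaded with 4 μM Fluo-3 for 1 h in HBSS/20 mM HEPES pH 7.0 with 2.5 mM probenecid. PAR agonist added and calcium fluorescence recorded over 6 min at 6 s intervals, room temperature.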
Test [5] deals with actin filaments in A431 cells. Kind of test: Texas Red-phalloidin fluorescence imaging. It counts as cell-based, human. The conditions noted are these: 100 nM trypsin or 40 unit/ml thrombin; ~95% confluency. On the procedure: Cells were grown on Corning® Epic™ 96 well biosensor microplates, starved for overnight with serum-free DMEM medium, chased with either trypsin or thrombin for certain time, fixed with 4% paraformaldehyde, permeabilized in phosphate-buffered saline (PBS) containing 0.2% Triton, and blocked with 1% bovine serum albumin (BSA). Afterwards, cells were incubated with 0.5 μM Texas Red-labeled phalloidin for 1 h at room temperature, and washed. After final washes and mounting, cells were examined with a 40× objective, equipped in a Zeiss Axioplan fluorescence microscope.

For test [6], the target named is T2, PAR1 receptor (Cricetulus griseus, UniProt A0A8C2QJ57).
T2 construct: The PAR1 receptor is endogenously expressed in CHO cells; endogenous in cells; host or cells: CHO
T2 sequence (A0A8C2QJ57 22-428): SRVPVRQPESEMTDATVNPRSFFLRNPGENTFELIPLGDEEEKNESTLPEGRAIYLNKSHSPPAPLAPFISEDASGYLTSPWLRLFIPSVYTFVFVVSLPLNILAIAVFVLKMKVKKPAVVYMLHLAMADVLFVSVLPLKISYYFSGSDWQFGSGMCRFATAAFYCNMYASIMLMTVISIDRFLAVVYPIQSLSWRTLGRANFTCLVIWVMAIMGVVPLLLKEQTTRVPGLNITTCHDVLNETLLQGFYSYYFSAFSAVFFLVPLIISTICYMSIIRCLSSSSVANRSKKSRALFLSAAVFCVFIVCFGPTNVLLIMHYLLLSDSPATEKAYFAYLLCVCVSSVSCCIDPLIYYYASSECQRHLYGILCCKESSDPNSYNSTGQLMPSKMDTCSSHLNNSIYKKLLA
Kind of test: Endpoint wavelength-shift measurement, 384 well biosensor plate. Format: cell-based, Chinese hamster. The conditions noted are these: CHO cells; 5 minutes after addition. On the procedure:
The two time points were right before the compound addition (the baseline point), and 5 minutes after the compound addition (the measured point). The difference between two endpoints reflects the total amplitude of the P-DMR event mediated by thrombin—a PAR1 receptor agonist. Here a different cell line—CHO cells was used. The PAR1 receptor is endogenously expressed in CHO cells. The cells become partially quiescent by culturing the cells in the DMEM medium for 4 hours before the thrombin stimulation. In this example, a 384 well Coring Epic biosensor plate was used. Each well contains CHO cells with a confluency of ˜90%. Half of the wells were treated with thrombin at 40 unit/ml, whereas other half of the wells were treated with the buffer HBSS only. Since the agonist-induced activation of both B2 in A431 and PAR1 in CHO cells leads to Gq signaling, the significance of this assay results is that the Gq-type optical signature is at least universal in both cell lines. By using similar endpoint measurements, one is able to screen GPCR modulators against different endogenous targets in different cells.
The two time points were right before the compound addition (the baseline point), and 5 minutes after the compound addition (the measured point). The CHO cells were treated with thrombin at different doses. […]

thrombin: the “Class of optical signature (DMR) induced by agonist” value in test [1] was “first class of optical signatures”. In addition, the “Apparent EC50 (P-DMR amplitude, Gq-type)” value in test [2] is recorded as 9.6±2.0 unit/ml. Further, in test [3], the “Effect of preceding stimulation on trypsin-induced DMR signal” value was “significantly suppresses but not completely eliminates the trypsin-induced DMR signal”. In addition, the “Effect of preceding stimulation on thrombin-mediated [Ca2+]i elevation” value in test [4] (40 unit/ml thrombin twice) was “totally blocked the [Ca^2+]i elevation mediated by 40 unit/ml thrombin”. Besides, in test [4] ([Ca2+]i), the “Concentration required to induce a maximal response” value was 40 unit/ml. Moreover, in test [4] (interval 6 min, 200 nM trypsin), the “Effect of preceding stimulation on trypsin-induced [Ca2+]i elevation” value was “slightly suppressed the trypsin-induced [Ca^2+]i elevation”. Also, in test [4] (quiescent A431, Fluo-3), the “EC50 of [Ca2+]i increase” value came to 6±1 unit/ml and the “Maximal [Ca2+]i elevation” value was 48.2±3.5%. The half-maximal effective concentration (EC50) in test [4] (quiescent A431, Fluo-3, converted from unit/ml, read-out: EC50 of [Ca2+]i increase, equivalent) is 60 ± 10 nM. Also, the “Reorganization of actin filaments” value in test [5] is listed as “triggered significant cytoskeletal reorganization after about 10 min”. The “Apparent EC50 (endpoint wavelength shift)” value in test [6] amounted to 12.5 unit/ml.
